A short description of data set [1]: Larvicidal activity against Aedes aegypti 4th instar larvae measured after 48 hrs. It is filed as ADME.
The nature of data set [2]: Larvicidal activity against Aedes aegypti assessed as mortality at 100 ug/ml measured after 24 hrs relative to control. It is filed as ADME. To be noted: at 100 µg/mL.
A short description of data set [3]: Larvicidal activity against Aedes aegypti assessed as mortality at 45 ug/ml measured after 24 hrs relative to control. It is filed as ADME. Particulars: at 45 µg/mL.
Data set [4] can be described thus: Retention time of the compound. The class given is physicochemical.
A short description of data set [5]: Drug recovery in Aedes aegypti larval extract by HPLC analysis. It is filed as ADME. To be noted: 24 h.
Data set [6] in a line: Drug recovery in Aedes aegypti supernatant measured after 24 hrs by HPLC analysis. It is filed as ADME.
Data set [7] is described as follows: Toxicity in Aedes aegypti assessed as reduction in body mass at 50 ug/ml. To be noted: dose 50 µg/ml.
The nature of data set [8]: Toxicity in Aedes aegypti assessed as appearance of dark spots in siphon region at 50 ug/ml. To be noted: dose 50 µg/ml.
Data set [9] is described as follows: Toxicity in Aedes aegypti assessed as modifications in anal papillae at 50 ug/ml. Particulars: dose 50 µg/ml.
A short description of data set [10]: Toxicity in Aedes aegypti assessed as rigid and elongated exoskeleton at 50 ug/ml. Particulars: dose 50 µg/ml.
Data set [11] in a line: Toxicity in Aedes aegypti assessed as appearance of dark spots in thorax region at 50 ug/ml. To be noted: dose 50 µg/ml.
The nature of data set [12]: Toxicity in Aedes aegypti assessed as translucent in anal papillae at 50 ug/ml. To be noted: dose 50 µg/ml.
Data set [13] is described as follows: Toxicity in Aedes aegypti assessed as appearance of dark spots in intestine region at 50 ug/ml. It is filed as tissue-based. To be noted: dose 50 µg/ml.
Data set [14] in a line: Toxicity in Aedes aegypti assessed as abdomen curvature at 50 ug/ml. Particulars: dose 50 µg/ml.

≈ marks a conversion by molar mass, not a printed value.

What is called LC50 is the concentration that kills 50% of the test population. A high value points to lower toxicity. One may read the mortality as the share of the test organisms that died. In data set [1], `O=C(O)/C=C/c1ccc(C(F)(F)F)cc1` came in with an LC10 of 87.7 µg/mL (≈ 406 µM), an LC50 of 97.6 µg/mL (≈ 452 µM) and an LC90 of 108.6 µg/mL (≈ 502 µM). Also, in data set [2], the mortality is listed as 56.7%. Besides, the mortality in [3] is 0%.
In turn, `O=C(O)/C=C/c1ccc(Cl)cc1` returned an LC10 in data set [1] of 16.2 µg/mL (≈ 88.7 µM). The LC50 in data set [1] is 26 µg/mL (≈ 142 µM). The molecule also had an LC90 in data set [1] of 41.8 µg/mL (≈ 229 µM). Also, the Retention_time in data set [4] stood at 3.32 min. For the same molecule, the mortality in data set [2] is given as 100%; in [3] it was 95%. The Drug recovery in [5] was 2.7143 µg/mL; in [6], 3.8191 µg/mL.
In data set [1], `CCOC(=O)/C=C/c1ccc([N+](=O)[O-])cc1` returned an LC10 of 21.3 µg/mL (≈ 96.3 µM), an LC50 of 35.7 µg/mL (≈ 161 µM) and an LC90 of 60 µg/mL (≈ 271 µM). For the same molecule, in [3], the mortality was 98.3%.
Consider `CCOC(=O)/C=C/c1ccc(N(C)C)cc1`, for which the mortality in data set [2] came out at 6.7%.
In the case of `CCOC(=O)/C=C/c1ccc(C(F)(F)F)cc1`, in [1], the LC10 was found to be 11.1 µg/mL (≈ 45.5 µM), the LC50 was found to be 21.6 µg/mL (≈ 88.4 µM) and the LC90 came out at 42.2 µg/mL (≈ 173 µM). Further, in data set [3], the mortality stood at 98.3%.
`CCOC(=O)/C=C/c1ccc(C#N)cc1`: the mortality in data set [3] is listed as 8.3%.
As for `CCOC(=O)/C=C/c1ccc(OC(F)(F)F)cc1`, in data set [1], the LC10 amounted to 19.6 µg/mL (≈ 75.3 µM), the LC50 amounted to 31.3 µg/mL (≈ 120 µM) and the LC90 was found to be 50 µg/mL (≈ 192 µM). For the same molecule, the mortality in [3] amounted to 93.3%.
As to `CCOC(=O)/C=C/C=C/c1ccccc1`, in [1], the LC10 worked out at 10 µg/mL (≈ 49.4 µM), the 50% lethal concentration (LC50) is 19.7 µg/mL (≈ 97.4 µM) and the LC90 stood at 38.8 µg/mL (≈ 192 µM). In addition, the mortality in data set [3] is 93.3%.
For `O=C(O)/C=C/c1ccc(OC(F)(F)F)cc1`, the mortality in [2] was 40%.
As for `CCOC(=O)/C=C/c1ccc(C(C)(C)C)cc1`, the mortality in data set [3] came out at 40%.
`CCOC(=O)/C=C/c1ccc(F)cc1`: in data set [1], the LC10 was found to be 24 µg/mL (≈ 124 µM), the LC50 came out at 32.2 µg/mL (≈ 166 µM) and the LC90 is 43.2 µg/mL (≈ 222 µM). Further, in [3], the mortality worked out at 83.3%.
For `CCOC(=O)/C=C/c1ccc(Br)cc1`, in that order: 18.9 µg/mL (≈ 74.1 µM), 25.1 µg/mL (≈ 98.4 µM), 33.3 µg/mL (≈ 131 µM) and 100%.
On to `O=C(O)/C=C/c1ccc(Br)cc1`, for which, in data set [1], the LC10 stood at 31.7 µg/mL (≈ 140 µM), the LC50 amounted to 54.4 µg/mL (≈ 240 µM) and the LC90 turned out to be 93.2 µg/mL (≈ 410 µM). Moreover, in [2], the mortality is recorded as 93.3%. Further, the mortality in data set [3] came out at 36.7%.
For the molecule `O=C(O)/C=C/c1ccc([N+](=O)[O-])cc1`, in data set [1], the LC10 amounted to 29 µg/mL (≈ 150 µM), the LC50 was determined as 37.1 µg/mL (≈ 192 µM) and the LC90 is 47.5 µg/mL (≈ 246 µM). In addition, the mortality in [2] came to 96.7%. Also, the mortality in data set [3] came out at 86.7%.
For the molecule `O=C(O)/C=C/c1ccc(F)cc1`, the mortality in [2] was determined as 0%.
In data set [1], `CCOC(=O)/C=C/c1ccc(OC)cc1` [4-METHOXY ETHYL CINNAMATE] returned an LC10 of 18.2 µg/mL (≈ 88.2 µM), an LC50 of 26.9 µg/mL (≈ 130 µM) and an LC90 of 39.7 µg/mL (≈ 192 µM). For the same molecule, the mortality in data set [3] was 80%.
For the molecule `COc1ccc(/C=C/C(=O)O)cc1` [4-METHOXYCINNAMIC ACID], the mortality in data set [3] turned out to be 0%.
Regarding `O=C(O)/C=C/c1ccccc1` [CINNAMIC ACID], the figures for the mortality in data set [2] and in [3] were 28.3% and 0%, respectively.
Regarding `CCOC(=O)/C=C/c1ccc(Cl)cc1Cl` [ETHYL 3-(2,4-DICHLOROPHENYL)ACRYLATE], in data set [1], the LC10 was found to be 10.2 µg/mL (≈ 41.6 µM), the LC50 was 23.6 µg/mL (≈ 96.3 µM) and the LC90 stood at 54.8 µg/mL (≈ 224 µM). Besides, the mortality in data set [3] is on record as 86.7%.
As for `CCOC(=O)/C=C/c1ccc(Cl)cc1` [ETHYL 3-(4-CHLOROPHENYL)ACRYLATE], the Activity result in data set [7], in data set [8], in data set [9], in data set [10], in data set [11] and in [12] was “Toxic” in each case. The Activity entry in [13] and in [14] was “Toxic” in each case. Further, in data set [1], the LC10 is 3.5 µg/mL (≈ 16.6 µM). The same molecule showed an LC50 in [1] of 8.3 µg/mL (≈ 39.4 µM). Further, in data set [1], the LC90 is 19.7 µg/mL (≈ 93.5 µM). The same molecule came in with a Retention_time in [4] of 3.61 min. Besides, in data set [3], the mortality turned out to be 100%. The Drug recovery was determined as 8.2531 µg/mL in data set [5] and 10.8746 µg/mL in data set [6].
In data set [1], `CCOC(=O)/C=C/c1ccccc1` [ETHYL CINNAMATE] returned an LC10 of 30.4 µg/mL (≈ 173 µM), an LC50 of 35.6 µg/mL (≈ 202 µM) and an LC90 of 41.7 µg/mL (≈ 237 µM). In addition, in data set [3], the mortality is reported as 95%.
For the molecule `CCOC(=O)/C=C/c1ccc(O)cc1` [ETHYL P-COUMARATE], the mortality in data set [3] was found to be 0%.
In data set [1], `COP(=S)(OC)Oc1ccc(Sc2ccc(OP(=S)(OC)OC)cc2)cc1` [TEMEFOS] registered an LC10 of 1.8 µg/mL (≈ 3.86 µM), an LC50 of 4.4 µg/mL (≈ 9.43 µM) and an LC90 of 10.4 µg/mL (≈ 22.3 µM).
